Patent US20130296331A1, “COMPOSITIONS AND METHODS FOR AMELIORATING RENAL DYSFUNCTION INDUCED BY RENAL HYPOPERFUSION OR ACUTE KIDNEY INJURY” (Technion Research and Development Foundation Ltd., priority 2010, published 2013)

Key:
[1] = tested on: rats with ischemic acute kidney injury; assay: Experimental acute kidney injury induced by warm renal ischemia of 45 min (renal artery clamping); assay type: in vivo, rat; conditions: rats pretreated before renal ischemia of 45 min
Protocol: Male Sprague Dawley rats weighing 300-350 gr were housed under standardized conditions for 2-3 days. Following an overnight fast, the animals were anaesthetized with an inactin anesthesia (100 mg/kg, IP) and placed on a controlled heating (thermoregulated) table keeping the body temperature at 37° C. Polyethylene tubes (PE50) were inserted into the right carotid artery for blood pressure monitoring and blood sampling, and into the jugular vein for infusion of 0.9% normal saline (0.9% NaCl) at a 1.5 ml/h rate, as well as 2% inulin and 1% para-aminohippuric acid (PAH) at a rate of 1.5 ml/h, by syringe pumps. Arterial blood pressure was continuously monitored with a pressure transducer connected to the carotid arterial line. Additional two catheters were inserted after a supravesical incision into the bladder for urine collection. In order to minimize dehydration, the abdominal area was covered with saline-soaked gauze. After 2 baseline urine collections, the left renal artery and vein were dissected and the perirenal fat was preserved. […] Urinary samples were analyzed for neutrophil gelatinase-associated lipocalcin (NGAL) and kidney injury molecule 1 (KIM-1), two novel biomarkers of renal damage. […] The levels of NGAL and KIM-1 were determined in urine samples prior to acute kidney injury (AKI) and at various time points following renal artery clamping.

[2] = tested on: rats with decompensated CHF; assay: Pneumoperitoneum (incremental IAP) in rats with decompensated CHF induced by aorto-caval fistula; assay type: in vivo, rat; conditions: pretreated 10 mg/kg/day for 4 days
Source text: CHF was induced by surgical creation of aorto-caval fistula (ACF) between the abdominal aorta and the vena cava, as schematically shown in FIG. 1. […] Similar pattern was reported in clinical CHF.
(§1) The abdomen was opened via small incision in the lower third between the xiphoid and pubis and the urinary bladder was catheterized for urine collection. A Veress needle was inserted into the abdominal cavity and connected to the CO2 gas supply to maintain intra-abdominal pressure (IAP) at the desired level using a special insufflator (Aesculap, Tuttlingen, Germany). The muscle and skin layers of the abdominal wall were closed separately by silk sutures in an airtight manner (FIG. 2).
(§2) Male Sprague-Dawley rats were organized into several groups. Normal rats, rats with compensated or decompensated CHF (n=12-13), and rats with MI (n=7) were subjected to IAP of 0 (baseline), 7, 10 or 14 mmHg, over 45-60 min for each pressure, followed by deflation period of 60 min (recovery), as illustrated in Scheme 1. Six additional rats with decompensated CHF and seven additional rats with MI were pretreated with the phosphodiesterase type 5 (PDE5) inhibitor Cialis® (tadalafil; 10 mg/kg/day) for 4 days prior to the experiment. Urine flow rate (V), absolute Na^+ excretion (UNaV), glomerular filtration rate (GFR), renal plasma flow (RPF) and blood pressure were determined throughout the experiments.
In this study, the effects of the phosphodiesterase type 5 (PDE5) inhibitor Cialis® (tadalafil), administered as described in Materials and Methods, on the adverse effects of incremental IAP, simulating pneumoperitoneum, on GFR, RPF, urinary flow rate (V), urinary sodium excretion (UNaV) and urinary cGMP excretion (UcGMP), in rats with decompensated CHF were tested.

rats with MI = assay: Pneumoperitoneum (incremental IAP) in rats with myocardial infarction (LAD occlusion); assay type: in vivo, rat; conditions: pretreated 10 mg/kg/day for 4 days
Protocol: Rats were anesthetized with a combination of ketamine (87 mg/kg) and xylazine (13 mg/kg), intubated, and mechanically ventilated at a rate of 80-90 cycles per minute with a tidal volume of 1-2 ml/100 gr. MI was induced by the most common method. Specifically, the left anterior descending (LAD) artery was completely and permanently occluded. Consequently, a large area of the left ventricle wall was deprived of its blood supply, and was thus exposed to hypoxia, ischemia, nutrient starvation and other conditions that develop under these circumstances. Seven days after LAD inclusion, the rats were used in the experimental model of pneumoperitoneum described below.
as §1, §2
In this study we tested whether rats with heart failure induced by myocardial infarction (MI) display renal susceptibility to IAP similar to that of rats with CHF induced by the creation of ACF. As expected and shown in FIGS. 9A-9D, rats with MI had lower basal GFR and RPF compared with control animals. […] These adverse effects were more profound in rats with MI as compared with sham controls.

[3] = tested on: rats subjected to IAP of 14 mm Hg; conditions: rat, in vivo; cited from earlier work

| Structure (SMILES) | urinary excretion of NGAL ([1]; FIG. 13A) | urinary excretion of KIM-1 ([1]; FIG. 13B) | adverse effects of increased IAP on urinary flow rate (V) ([2]; FIG. 7A) | adverse effects of increased IAP on urinary sodium excretion (UNaV) ([2]; FIG. 7B) | inhibitory effect of IAP on urinary cGMP excretion (UcGMP V) ([2]; FIG. 8) | adverse effects of increased IAP on GFR ([2]; IAP 7, 10, 14 mmHg, FIGS. 6A-6B) | adverse effects of increased IAP on RPF ([2]; IAP 7, 10, 14 mmHg, FIGS. 6C-6D) | inhibitory effect of IAP on urinary cGMP excretion (UcGMP V) (rats with MI; FIG. 11) | adverse effects of pneumoperitoneum on GFR (rats with MI; FIGS. 9A-9B) | adverse effects of pneumoperitoneum on RPF (rats with MI; FIGS. 9C-9D) | adverse effects of pneumoperitoneum on urinary flow rate (V) (rats with MI; IAP 14 mmHg, FIG. 10A) | adverse effects of pneumoperitoneum on urinary sodium excretion (UnaV) (rats with MI; IAP 14 mmHg, FIG. 10B) | IAP-induced renal dysfunction (decreased renal excretory function and hypofiltration) [3] |
| --- | --- | --- | --- | --- | --- | --- | --- | --- | --- | --- | --- | --- | --- |
| CN1CC(=O)N2[C@H](c3ccc4c(c3)OCO4)c3[nH]c4ccccc4c3C[C@@H]2C1=O [Cialis®, (6R-trans)-6-(1,3-benzodioxol-5-yl)-2,3,6,7,12,12a-hexahydro-2-methyl-pyrazino[1′,2′:1,6]pyrido[3,4-b]indole-1,4-dione] | significantly attenuated | significantly attenuated | abolished | abolished | prevented | remarkably attenuated | remarkably attenuated | significantly attenuated | substantially attenuated | substantially attenuated | partially ameliorated | partially ameliorated |  |
| O=[N+]([O-])OCC(CO[N+](=O)[O-])O[N+](=O)[O-] [nitroglycerine] |  |  |  |  |  |  |  |  |  |  |  |  | partially ameliorated |
